Starred links: 1 amine or outer side, 2 acyl side, 3 side chain; linkers in the order of their positions; H or OH if unused. Positions of bridges follow the written chain, without caps; N, C: chain ends. Residues, ends and D or L forms follow the SMILES beside them. *: point of attachment. C18 diacid = O=C(O)CCCCCCCCCCCCCCCCC(=O)*; γGlu = O=C(O)[C@H](CCC(=O)[*:2])N[*:1]
Assays:
[1] = Accelerated chemical stability (RP-UPLC recovery and LCMS degradation pattern, 37° C.); assay type: physicochemical; design: Isomers TZ / Isomers 2 W / Loss of 18 amu TZ / Loss of 18 amu 2 W / Fragments TZ / Fragments 2 W / Fragments 1 W / Fragments 3 W / Fragments 4 W / Fragments 5 W / Fragments 6 W / Others 1 W / Others 3 W / Others 4 W / Others 5 W / Others 6 W / Isomers 1 W / Isomers 3 W / Isomers 4 W / Isomers 5 W / Isomers 6 W / Loss of 18 amu 1 W / Loss of 18 amu 3 W / Loss of 18 amu 4 W / Loss of 18 amu 5 W / Loss of 18 amu 6 W: unit not given here; settings: LCMS, 6 week study
Protocol: In order to determine the chemical stability of CNP compounds in formulation, samples of CNP compounds in buffer were exposed to accelerated chemical degradation by heating. The stability of a given peptide was assessed by measuring recovery of intact peptide by quantification by RP-UPLC. To assess the chemical degradation pattern samples were also analysed by LC-MS.
Sample preparation: Samples for the 2 week study were prepared according to the principles described in Example 5.
Samples for the 6 week study were prepared by dissolving lyophilized peptide in buffer (8 mM phosphate, 250 mM glycerol, pH 7.4) to a nominal peptide concentration of 5000 nmol/ml followed by pH adjustment with 0.1 N HCl to pH 6.5.
Incubation: For the 2 week study a time-zero (TZ) sample was pulled and stored at −18° C. and the remaining volume was incubated at 37° C. Samples were pulled and stored at −18° C. after 2 weeks of incubation. Frozen samples were thawed, diluted to about 200 nmol/mL and the extent of chemical degradation was determined using LCMS as described.
For the 6 week study a time-zero (TZ) sample was pulled and stored at −18° C. and the remaining volume was incubated at 37° C. Samples were pulled on a weekly basis and stored at −18° C. until the last sampling time point at 6 weeks. Frozen samples were thawed, diluted to about 200 nmol/mL and the extent of chemical degradation was determined using RP-UPLC and LCMS as described.
Analysis of peptide recovery by RP-UPLC: The RP-UPLC method was performed on a Waters ACQUITY H-CLASS UPLC system fitted with a PDA detector. Separation was carried out on an ACQUITY UPLC BEH C8 Column (130 Å, 1.7 μm, 2.1 mm×150 mm) operating at a column temperature of 50° C. with eluent A (19.59 mM NH4H2PO4 41.71 mM (NH4)2HPO4, pH 6.5 and MeCN 9:1 v:v) and eluent B (80% MeCN in water). UV-detection was carried out at 214 nm. The analysis was performed by injection of 3 μL of sample onto the column which was eluted with a 1-step linear gradient of eluents A and B from 27 to 30% B over 20 minutes followed by a wash at 95% B over 2 minutes followed by a re-equilibration phase for 7 minutes at a constant flow rate of 0.3 mL/min. This yielded an analysis time of 30 minutes per sample. The area of the peak corresponding to intact CNP compound was given on a percentage scale relative to the total peptide peak area.
Analysis of chemical degradation patterns by LCMS: Samples were analysed on a […] UPLC from Thermo Scientific, using a Waters Acquity C18 reversed-phase column, 300 Å, […] particles 1 mm×150 mm. The compounds were separated by a linear gradient of solvent B from 5% to 55% over 48 minutes, using solvent A: water, 0.1% formic acid with 0.02% TFA and solvent B: acetonitrile, 0.1% formic acid with 0.02% TFA. Mass spectra were acquired by a Q Exactive Plus hybrid Quadrupole-Orbitrap mass spectrometer, BioPharma option (Thermo Scientific) interfaced with H-ESI II ion source. Data acquisitions were performed with a m/z 500 to 2000 scan range and a resolution of 30000.
The data list was aggregated into a summed table of the compounds. The table headers were defined as follows: […]
Results: The results from LCMS analysis of a 2 week accelerated degradation study on several CNP compounds of the present invention are summarised in Table 12. The results from RP-UPLC and LCMS analysis of a 6 week accelerated degradation study on CNP compound 9482 (Chem. 137) is summarised in Table 13 and Table 14 respectively.

[2] = Mouse growth study (tail and body length); assay type: in vivo, mice (C57BL/6J); settings: for body length higher compared to control group: 35 days; for change in tail length (from day 0) increased compared to control animals: after 35 days; for Tail length, Mean (%) change from day 0 / Body length, Mean (%) change from day 0: C57BL/6J mice
Protocol: The purpose of this study was to evaluate growth in mice after treatment with two doses of CNP compound.
Procedure: Mice (C57BL/6J, male, age 4 weeks; n=10) received daily subcutaneous injections of compound 9482 or vehicle for 35 days. Formulations were prepared according to the principles described in General Methods of Preparation—Method G (30 and 70 nmol/kg, 10 mL/kg; Formulation buffer 8 mM sodium phosphate, 250 mM glycerol, 0.007% polysorbate 20, pH 7.4). Body weight and tail and body length were measured weekly throughout the study. The increase in growth was expressed as percentage change from day (mean (SD)).
In Table 28, increase in tail length is expressed as percentage change from day 0 (mean (SD)). Statistically significant differences are indicated compared to control group (two-way ANOVA).
In Table 29, increase in body length is expressed as percentage change from day 0 (mean (SD)). Statistically significant differences are indicated compared to control group (two-way ANOVA).

[3] = both 30 and 70 nmol/kg daily s.c., p<0.05

SMILES: CC[C@H](C)[C@@H]1NC(=O)[C@H](CCCNC(=N)N)NC(=O)[C@H](CC(=O)O)NC(=O)[C@H](CC(C)C)NC(=O)[C@@H]2CCCN2C(=O)[C@H](CC(C)C)NC(=O)CNC(=O)[C@H](Cc2ccccc2)NC(=O)[C@@H](NC(=O)CNC(=O)[C@H](CO)NC(=O)[C@H](CO)NC(=O)[C@H](CC(C)C)NC(=O)CNC(=O)[C@H](CCCCN)NC(=O)[C@H](CCCCN)NC(=O)[C@H](CCC(N)=O)NC(=O)[C@H](C)NC(=O)CNC(=O)[C@H](CCCCN)NC(=O)[C@H](Cc2ccc(O)cc2)NC(=O)[C@H](CCCCN)NC(=O)[C@H](CCCNC(=N)N)NC(=O)[C@H](C)NC(=O)[C@H](CCC(N)=O)NC(=O)[C@@H]2CCCN2C(=O)[C@H](Cc2c[nH]cn2)NC(=O)[C@H](CCC(=O)O)NC(=O)[C@H](CCC(N)=O)NC(=O)CC[C@H](NC(=O)CC[C@H](NC(=O)CC[C@H](NC(=O)CC[C@H](NC(=O)CC[C@H](NC(=O)CCCCCCCCCCCCCCCCC(=O)O)C(=O)O)C(=O)O)C(=O)O)C(=O)O)C(=O)O)CSSC[C@@H](C(=O)O)NC(=O)CNC(=O)[C@H](CC(C)C)NC(=O)CNC(=O)[C@H](CO)NC(=O)[C@H](CC(C)C)NC(=O)[C@H](CO)NC(=O)CNC1=O [compound 9482] ({C18 diacid-γGlu-γGlu-γGlu-γGlu-γGlu}-QEHPQARKYKGAQKKGLSSGCFGLPLDRIGSLSGLGC-OH; disulfide 21-37)
- Fragments 1 W ([1]; 1 week at 37° C.): 0.20
- Isomers 1 W ([1]; 1 week at 37° C.): 0.00
- Loss of 18 amu 1 W ([1]; 1 week at 37° C.): 0.00
- Others 1 W ([1]; 1 week at 37° C.): 0.30
- Fragments 2 W ([1]; 2 weeks at 37° C.): 0.30
- Isomers 2 W ([1]; 2 weeks at 37° C.): 0.60
- Loss of 18 amu 2 W ([1]; 2 weeks at 37° C.): 0.10
- Others 2 W ([1]; 2 weeks at 37° C.): 0.3%
- Fragments 3 W ([1]; 3 weeks at 37° C.): 0.50
- Isomers 3 W ([1]; 3 weeks at 37° C.): 1.20
- Loss of 18 amu 3 W ([1]; 3 weeks at 37° C.): 0.10
- Others 3 W ([1]; 3 weeks at 37° C.): 0.30
- Fragments 4 W ([1]; 4 weeks at 37° C.): 0.90
- Isomers 4 W ([1]; 4 weeks at 37° C.): 1.70
- Loss of 18 amu 4 W ([1]; 4 weeks at 37° C.): 0.20
- Others 4 W ([1]; 4 weeks at 37° C.): 0.50
- Fragments 5 W ([1]; 5 weeks at 37° C.): 0.80
- Isomers 5 W ([1]; 5 weeks at 37° C.): 2.40
- Loss of 18 amu 5 W ([1]; 5 weeks at 37° C.): 0.20
- Others 5 W ([1]; 5 weeks at 37° C.): 0.40
- Fragments 6 W ([1]; 6 weeks at 37° C.): 1.20
- Isomers 6 W ([1]; 6 weeks at 37° C.): 3.90
- Loss of 18 amu 6 W ([1]; 6 weeks at 37° C.): 0.30
- Others 6 W ([1]; 6 weeks at 37° C.): 0.50
- Fragments TZ ([1]; time zero): 0.00
- Isomers TZ ([1]; time zero): 0.00
- Loss of 18 amu TZ ([1]; time zero): 0.00
- Others TZ ([1]; time zero): 0.2%
- body length higher compared to control group ([2]; 30 nmol/kg daily s.c.): 30%
- change in tail length (from day 0) increased compared to control animals ([2]; 30 nmol/kg daily s.c.): 45%
- Tail length, Mean (%) change from day 0 ([2]; 30 nmol/kg daily s.c., day 7): 11.8%
- Body length, Mean (%) change from day 0 ([2]; 30 nmol/kg daily s.c., day 8): 10.2%
- Tail length, Mean (%) change from day 0 ([2]; 30 nmol/kg daily s.c., day 14): 16.0%
- Body length, Mean (%) change from day 0 ([2]; 30 nmol/kg daily s.c., day 18): 17.5%
- Tail length, Mean (%) change from day 0 ([2]; 30 nmol/kg daily s.c., day 21): 24.1%
- Body length, Mean (%) change from day 0 ([2]; 30 nmol/kg daily s.c., day 25): 22.5%
- Tail length, Mean (%) change from day 0 ([2]; 30 nmol/kg daily s.c., day 28): 25.6%
- Body length, Mean (%) change from day 0 ([2]; 30 nmol/kg daily s.c., day 35): 27.4%
- Tail length, Mean (%) change from day 0 ([2]; 30 nmol/kg daily s.c., day 35): 28.5%
- body length higher compared to control group ([2]; 70 nmol/kg daily s.c.): 67%
- change in tail length (from day 0) increased compared to control animals ([2]; 70 nmol/kg daily s.c.): 83%
- Tail length, Mean (%) change from day 0 ([2]; 70 nmol/kg daily s.c., day 7): 14.3%
- Body length, Mean (%) change from day 0 ([2]; 70 nmol/kg daily s.c., day 8): 12.8%
- Tail length, Mean (%) change from day 0 ([2]; 70 nmol/kg daily s.c., day 14): 20.3%
- Body length, Mean (%) change from day 0 ([2]; 70 nmol/kg daily s.c., day 18): 21.5%
- Tail length, Mean (%) change from day 0 ([2]; 70 nmol/kg daily s.c., day 21): 29.0%
- Body length, Mean (%) change from day 0 ([2]; 70 nmol/kg daily s.c., day 25): 29.0%
- Tail length, Mean (%) change from day 0 ([2]; 70 nmol/kg daily s.c., day 28): 32.0%
- Body length, Mean (%) change from day 0 ([2]; 70 nmol/kg daily s.c., day 35): 35.3%
- Tail length, Mean (%) change from day 0 ([2]; 70 nmol/kg daily s.c., day 35): 35.7%
- time after which body length was significantly increased compared to control [2, 3]: 18 days
- time after which tail length was significantly increased compared to control [2, 3]: 7 days

Source: patent publication US20240209028A1, “CNP COMPOUNDS” (priority 2022, published 2024)
